Experiments:
Format in all cases: cell-based
HL-60(TB) = experiment: NCI 60 antitumor screening (single dose / five doses); conditions: Homo sapiens; for inhibition at 10 µM: HL-60(TB) (leukaemia), single dose 10 μM, read-out: Growth inhibition percentage (GI %)
RXF 393 = experiment: as above; conditions: Homo sapiens; for inhibition at 10 µM: RXF 393 (renal cancer), single dose 10 μM, read-out: Growth inhibition percentage (GI %)
LOX IMVI = experiment: as above; conditions: Homo sapiens; for inhibition at 10 µM: LOX IMVI (melanoma), single dose 10 μM, read-out: Growth inhibition percentage (GI %)
NCI-H23 = experiment: NCI 60 antitumor screening (single dose); conditions: Homo sapiens; NCI-H23 (non-small cell lung cancer), single dose 10 μM; read-out: Growth inhibition percentage (GI %)
In short: (§1)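 Values are GI% (100 minus percent growth, G%) from the NCI 60 cell line screen at one 10 μM concentration. Tests were done in triplicate under NCI protocol, with a mean across the whole panel reported as well.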

SK-OV-3 = experiment: NCI 60 antitumor screening (single dose); conditions: Homo sapiens; SK-OV-3 (ovarian cancer), single dose 10 μM; read-out: Growth inhibition percentage (GI %)
In short: as §1

OVCAR-4 = experiment: NCI 60 antitumor screening (single dose); conditions: Homo sapiens; OVCAR-4 (ovarian cancer), single dose 10 μM; read-out: Growth inhibition percentage (GI %)
In short: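 Compounds were tested at a single 10 μM dose against the NCI 60-cell-line panel (nine tumour types), in triplicate. Growth was recorded as percent growth (G%) of treated cells, and growth inhibition was taken as GI% = 100 − G%.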

SF-295 = experiment: NCI 60 antitumor screening (single dose / five doses); conditions: Homo sapiens; for inhibition at 10 µM: SF-295 (CNS cancer), single dose 10 μM, read-out: Growth inhibition percentage (GI %)
MDA-MB-435 = experiment: as above; conditions: Homo sapiens; MDA-MB-435 (melanoma), single dose 10 μM; read-out: Growth inhibition percentage (GI %)
COLO 205 = experiment: as above; conditions: Homo sapiens; for inhibition at 10 µM: COLO 205 (colon cancer), single dose 10 μM, read-out: Growth inhibition percentage (GI %)
MDA-MB-468 = experiment: as above; conditions: Homo sapiens; for inhibition at 10 µM: MDA-MB-468 (breast cancer), single dose 10 μM, read-out: Growth inhibition percentage (GI %)
SK-MEL-28 = experiment: as above; conditions: Homo sapiens; SK-MEL-28 (melanoma), single dose 10 μM; read-out: Growth inhibition percentage (GI %)
UACC-62 = experiment: as above; conditions: Homo sapiens; UACC-62 (melanoma), single dose 10 μM; read-out: Growth inhibition percentage (GI %)
SK-MEL-5 = experiment: as above; conditions: Homo sapiens; for inhibition at 10 µM: SK-MEL-5 (melanoma), single dose 10 μM, read-out: Growth inhibition percentage (GI %)
EKVX = experiment: as above; conditions: Homo sapiens; EKVX (non-small cell lung cancer), single dose 10 μM; read-out: Growth inhibition percentage (GI %)
SNB-75 = experiment: as above; conditions: Homo sapiens; for inhibition at 10 µM: SNB-75 (CNS cancer), single dose 10 μM, read-out: Growth inhibition percentage (GI %)
DU-145 = experiment: as above; conditions: Homo sapiens; for inhibition at 10 µM: DU-145 (prostate cancer), single dose 10 μM, read-out: Growth inhibition percentage (GI %)
BT-549 = experiment: as above; conditions: Homo sapiens; for inhibition at 10 µM: BT-549 (breast cancer), single dose 10 μM, read-out: Growth inhibition percentage (GI %)
MDA-MB-231/ATCC = experiment: as above; conditions: Homo sapiens; for inhibition at 10 µM: MDA-MB-231/ATCC (breast cancer), single dose 10 μM, read-out: Growth inhibition percentage (GI %)
SR = experiment: as above; conditions: Homo sapiens; for inhibition at 10 µM: SR (leukaemia), single dose 10 μM, read-out: Growth inhibition percentage (GI %)
NCI/ADR-RES = experiment: as above; conditions: Homo sapiens; for inhibition at 10 µM: NCI/ADR-RES (ovarian cancer), single dose 10 μM, read-out: Growth inhibition percentage (GI %)
HCT-116 = experiment: as above; conditions: Homo sapiens; for inhibition at 10 µM: HCT-116 (colon cancer), single dose 10 μM, read-out: Growth inhibition percentage (GI %)
A498 = experiment: as above; conditions: Homo sapiens
MOLT-4 = experiment: as above; conditions: Homo sapiens; for inhibition at 10 µM: MOLT-4 (leukaemia), single dose 10 μM, read-out: Growth inhibition percentage (GI %)
IGROV1 = experiment: as above; conditions: Homo sapiens, IGROV-1; for inhibition at 10 µM: IGROV1 (ovarian cancer), single dose 10 μM, read-out: Growth inhibition percentage (GI %)
SK-MEL-2 = experiment: as above; conditions: Homo sapiens; for inhibition at 10 µM: SK-MEL-2 (melanoma), single dose 10 μM, read-out: Growth inhibition percentage (GI %)
SN 12C = experiment: as above; conditions: Homo sapiens, SN12C; SN 12C (renal cancer), single dose 10 μM; read-out: Growth inhibition percentage (GI %)
[1] = test system: 60 human subpanel cancer cell lines; experiment: NCI 60 antitumor screening, mean over the panel (single dose); conditions: mean over 60 cancer cell lines, single dose 10 μM
Procedure: Initially, the anticancer effects of target compounds have been assessed at a single (10 μM) dose. The obtained data have been reported as mean-graph of the percent growth (G%) of the treated cancer cells. Percentage growth inhibition (GI%) is calculated (100 − G%) and pronounced in Table 1. […] Target compounds in series (III) with manipulated linkers disclosed lower potency. Superiorly, eight s-triazine derivatives from the three series (6a, 6c, 6d, 7a, 7g, 7i, 7l, and 8b) have shown potent broad-spectrum anticancer activity against most the examined cell lines, whereas most of the remaining triazine derivatives, 20 derivatives, have exerted selective anti-proliferative actions towards certain cancer cell lines (Supplementary).
The antitumor screening was performed for 60 human cancer cell lines under the protocol of NCI (www.dtp.nci.nih.gov), the Drug Evaluation Branch, Bethesda, MD. All submitted compounds were nominated based on the degree of structural diversity and computer modelling techniques for evaluation of their anticancer activity. The screening process for antineoplastic activity passes through two successive levels, starting with the assessment of target compounds at a single dose of 10 μM against 60 cancer cell lines on nine types of human tumours. These experiments were done on a triplicate following. The output from the single‐dose screening was covered as a mean graph, and then, analysed by the COMPARE program. Finally, the compounds which disclosed subpanel cancer cell growth (G %) equal to or less than 10% in at least eight cancer cell lines get to pass the assessment against the 60 cell lines at five doses (0.01–100 μM). By using GraphPad Prism version 9.0 (Graphpad Software Inc., La Jolla, CA), GI50, TGI, as well as LC50 dose‐response parameters were computed and presented for each compound (Supplementary information)[55–57].

HCT-15 = experiment: NCI 60 antitumor screening (single dose / five doses); conditions: Homo sapiens; for inhibition at 10 µM: HCT-15 (colon cancer), single dose 10 μM, read-out: Growth inhibition percentage (GI %)

## Brc1ccccc1/C=N/Nc1nc(N/N=C/c2ccccc2Br)nc(N2CCOCC2)n1 [compound 6b, 2,4-Bis[(E)-2-[(2-bromophenyl)methylidene]hydrazin-1-yl]-6-(morpholin-4-yl)-1,3,5-triazine]
HL-60(TB)
  inhibition at 10 µM: 19.5%
RXF 393
  inhibition at 10 µM: 30.4%
LOX IMVI
  inhibition at 10 µM: -2.7%
NCI-H23
  inhibition at 10 µM: -4.52%
SK-OV-3
  inhibition at 10 µM: -13.9%
OVCAR-4
  inhibition at 10 µM: 3.79%
SF-295
  inhibition at 10 µM: 14.5%
MDA-MB-435
  inhibition at 10 µM: 2.29%
COLO 205
  inhibition at 10 µM: 13.9%
MDA-MB-468
  inhibition at 10 µM: 9.74%
SK-MEL-28
  inhibition at 10 µM: 0.72%
UACC-62
  inhibition at 10 µM: -2.17%
SK-MEL-5
  inhibition at 10 µM: 30.4%
EKVX
  inhibition at 10 µM: 19.8%
SNB-75
  inhibition at 10 µM: -31.7%
DU-145
  inhibition at 10 µM: 1.72%
BT-549
  inhibition at 10 µM: -6.54%
MDA-MB-231/ATCC
  inhibition at 10 µM: -3.3%
SR
  inhibition at 10 µM: 36.1%
NCI/ADR-RES
  inhibition at 10 µM: 8.51%
HCT-116
  inhibition at 10 µM: 2.53%
A498; A498 (renal cancer), single dose 10 μM, read-out: Growth inhibition percentage (GI %)
  inhibition at 10 µM: 49.8%
MOLT-4
  inhibition at 10 µM: 27.4%
IGROV1
  inhibition at 10 µM: 10.3%
SK-MEL-2
  inhibition at 10 µM: 3.71%
SN 12C
  inhibition at 10 µM: 1.16%
[1]
  Mean GI %: 7.16%
HCT-15
  inhibition at 10 µM: 18.9%

## Brc1cccc(/C=N/Nc2nc(N/N=C/c3cccc(Br)c3)nc(N3CCOCC3)n2)c1 [compound 6c, 2,4-Bis[(E)-2-[(3-bromophenyl)methylidene]hydrazin-1-yl]-6-(morpholin-4-yl)-1,3,5-triazine]
HL-60(TB)
  inhibition at 10 µM: 110%
HL-60(TB); HL-60(TB), five doses (0.01–100 μM), read-out: GI50
  GI50: 150 nM
RXF 393
  inhibition at 10 µM: 168%
RXF 393; RXF 393, five doses (0.01–100 μM), read-out: GI50
  GI50: 160 nM
LOX IMVI
  inhibition at 10 µM: 94.8%
LOX IMVI; LOX IMVI, five doses (0.01–100 μM), read-out: GI50
  GI50: 2660 nM
NCI-H23
  inhibition at 10 µM: 56.9%
SK-OV-3
  inhibition at 10 µM: 7.13%
OVCAR-4
  inhibition at 10 µM: 45.8%
SF-295
  inhibition at 10 µM: 70.9%
SF-295; SF-295, five doses (0.01–100 μM), read-out: GI50
  GI50: 4940 nM
MDA-MB-435
  inhibition at 10 µM: 66.6%
COLO 205
  inhibition at 10 µM: 76.2%
COLO 205; COLO 205, five doses (0.01–100 μM), read-out: GI50
  GI50: 1240 nM
MDA-MB-468
  inhibition at 10 µM: 98.9%
MDA-MB-468; MDA-MB-468, five doses (0.01–100 μM), read-out: GI50
  GI50: 1910 nM
SK-MEL-28
  inhibition at 10 µM: 82.9%
UACC-62
  inhibition at 10 µM: 44%
SK-MEL-5
  inhibition at 10 µM: 79.3%
SK-MEL-5; SK-MEL-5, five doses (0.01–100 μM), read-out: GI50
  GI50: 1990 nM
EKVX
  inhibition at 10 µM: 51%
SNB-75
  inhibition at 10 µM: -7.5%
SNB-75; SNB-75, five doses (0.01–100 μM), read-out: GI50
  GI50: 4540 nM
DU-145
  inhibition at 10 µM: 72.7%
DU-145; DU-145, five doses (0.01–100 μM), read-out: GI50
  GI50: 1310 nM
BT-549
  inhibition at 10 µM: 47.3%
BT-549; BT-549, five doses (0.01–100 μM), read-out: GI50
  GI50: 3540 nM
MDA-MB-231/ATCC; MDA-MB-231/ ATCC, five doses (0.01–100 μM), read-out: GI50
  GI50: 3970 nM
MDA-MB-231/ATCC
  inhibition at 10 µM: 33.9%
SR
  inhibition at 10 µM: 92.1%
SR; SR, five doses (0.01–100 μM), read-out: GI50
  GI50: 160 nM
NCI/ADR-RES
  inhibition at 10 µM: 58.2%
NCI/ADR-RES; NCI/ADR-RES, five doses (0.01–100 μM), read-out: GI50
  GI50: 3250 nM
HCT-116
  inhibition at 10 µM: 78.8%
HCT-116; HCT-116, five doses (0.01–100 μM), read-out: GI50
  GI50: 780 nM
A498; A498, five doses (0.01–100 μM), read-out: GI50
  GI50: 140 nM
MOLT-4
  inhibition at 10 µM: 89.8%
MOLT-4; MOLT-4, five doses (0.01–100 μM), read-out: GI50
  GI50: 680 nM
IGROV1
  inhibition at 10 µM: 57.2%
IGROV1; IGROV1, five doses (0.01–100 μM), read-out: GI50
  GI50: 2920 nM
SK-MEL-2
  inhibition at 10 µM: 97.4%
SK-MEL-2; SK-MEL-2, five doses (0.01–100 μM)
  GI50: 2430 nM
SN 12C
  inhibition at 10 µM: 55.8%
[1]
  Mean GI %: 66%
HCT-15
  inhibition at 10 µM: 109%
HCT-15; HCT-15, five doses (0.01–100 μM), read-out: GI50
  GI50: 420 nM

From article PMC9848300, “Discovery of novel enasidenib analogues targeting inhibition of mutant isocitrate dehydrogenase 2 as antileukaemic agents” (Journal of Enzyme Inhibition and Medicinal Chemistry, 2023)
